The values below come from ChEMBL document CHEMBL1127467, “Molecular modeling studies of some choline acetyltransferase inhibitors” (J Med Chem, 1994).

Each structure is given as a SMILES string. A value given as a limit tells only on which side of the number the result lay.

The assay deals with T1, Choline O-acetyltransferase (Homo sapiens, UniProt P28329).
T1 sequence (P28329 whole entry): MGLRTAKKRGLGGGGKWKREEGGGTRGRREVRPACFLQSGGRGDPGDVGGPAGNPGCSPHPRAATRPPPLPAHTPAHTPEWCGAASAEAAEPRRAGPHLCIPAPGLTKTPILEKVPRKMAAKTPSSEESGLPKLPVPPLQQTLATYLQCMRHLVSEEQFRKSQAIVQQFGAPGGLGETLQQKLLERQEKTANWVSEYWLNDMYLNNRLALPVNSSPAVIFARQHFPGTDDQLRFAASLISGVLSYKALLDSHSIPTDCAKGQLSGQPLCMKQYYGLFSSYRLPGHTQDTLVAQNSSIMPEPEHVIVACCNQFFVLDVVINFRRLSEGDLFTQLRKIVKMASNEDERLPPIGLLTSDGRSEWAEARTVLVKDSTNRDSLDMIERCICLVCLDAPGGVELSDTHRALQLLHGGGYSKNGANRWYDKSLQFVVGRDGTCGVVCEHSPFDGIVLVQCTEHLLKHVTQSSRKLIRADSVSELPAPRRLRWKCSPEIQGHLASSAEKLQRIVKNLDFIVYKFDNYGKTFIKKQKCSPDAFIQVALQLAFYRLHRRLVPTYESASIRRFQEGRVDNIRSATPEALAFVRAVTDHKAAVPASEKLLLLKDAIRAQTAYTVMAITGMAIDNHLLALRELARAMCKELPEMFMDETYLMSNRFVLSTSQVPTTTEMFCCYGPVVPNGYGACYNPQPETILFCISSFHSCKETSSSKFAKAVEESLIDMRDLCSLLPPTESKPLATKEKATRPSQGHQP
As to the kind of experiment: Inhibition of Choline Acetyltransferase. The settings on record: read-out: I50.

As to `C[n+]1ccc(/C=N/c2cccc3ccccc23)cc1`, the IC50 was 1.5 µM. In the case of `C/C(=C\c1ccccc1)c1cc[n+](C)cc1` it was more than 100 µM. Turning to `CCc1c[n+](C)ccc1/C=C/c1ccccc1`, the IC50 turned out to be 19 µM.

On to `C[n+]1ccc(/C=C/c2cccc3ccccc23)cc1`, for which the IC50 is 0.4 µM. Turning to `C[n+]1ccc(/C=C/c2ccccc2)c2ccccc21`, the IC50 was 3.5 µM. As for `Cc1c[n+](C)ccc1/C=C/c1cccc2ccccc12`, the IC50 came out at 0.4 µM.

As for `C[n+]1ccc(/C=C/c2cc3ccccc3c3ccccc23)cc1`, the IC50 was more than 100 µM. With `COc1ccc(/C=C/c2cc[n+](C)cc2)c2ccccc12` the figure was more than 100 µM. `C[n+]1ccc(/N=C/c2cccc3ccccc23)cc1`: the IC50 is more than 100 µM. With `C[n+]1ccc(/C=C/c2ccccc2Cl)cc1` the figure was 28 µM; with `C[n+]1ccc(/C=C/c2ccccc2)cc1`, 13.5 µM; with `Cc1c[n+](C)ccc1/C=C/c1ccccc1`, 5 µM. In the case of `C[n+]1ccc(/C=C/c2cccc(Cl)c2)cc1` it was 2.3 µM.
